Entries after “also recorded” stand apart in the source; their conditions may differ.
Tests used:
gp130 [1] = assay: gp130 null Ba/F3 cells transfected with full-length gp130 or ΔD2 mutant; type: cell-based; settings: WT gp130 vs ΔD2 mutant
Protocol: (§1) Based on this, it was hypothesized that RCGD 423 acts through gp130 by promoting stable homodimers in the absence of ligand. To confirm that RCGD 423 acts through gp130, the gp130 null cell line Ba/F3 cells was used. Ba/F3 cells were transfected with either full-length gp130 or a mutant gp130 lacking domain 2 (ΔD2), which contains the predicted binding site for RCGD 423 (FIG. 7). […] To verify the specificity of RCGD 423 in vivo, the compound was injected into rat knees in the presence of the small molecule gp130 inhibitor SC144 or a blocking antibody specific for domain 2 of gp130. […] The ability of RCGD 423 to act via inducing formation of gp130 homodimers was then examined by expressing tagged versions of gp130 in 293T cells. In this system, only homodimeric complexes can contain both tagged versions of gp130 (FIG. 9).

gp130 [2] = biological target: T1, gp130 (Rattus norvegicus, UniProt P40190); assay: Injection into rat knees, pSTAT3 and MYC levels; type: in vivo; settings: injection into rat joints
T1 construct: from tissue; host or cells: rat knee joint in vivo (Sprague-Dawley wild-type in the CFA model)
T1 sequence (P40190 23-918): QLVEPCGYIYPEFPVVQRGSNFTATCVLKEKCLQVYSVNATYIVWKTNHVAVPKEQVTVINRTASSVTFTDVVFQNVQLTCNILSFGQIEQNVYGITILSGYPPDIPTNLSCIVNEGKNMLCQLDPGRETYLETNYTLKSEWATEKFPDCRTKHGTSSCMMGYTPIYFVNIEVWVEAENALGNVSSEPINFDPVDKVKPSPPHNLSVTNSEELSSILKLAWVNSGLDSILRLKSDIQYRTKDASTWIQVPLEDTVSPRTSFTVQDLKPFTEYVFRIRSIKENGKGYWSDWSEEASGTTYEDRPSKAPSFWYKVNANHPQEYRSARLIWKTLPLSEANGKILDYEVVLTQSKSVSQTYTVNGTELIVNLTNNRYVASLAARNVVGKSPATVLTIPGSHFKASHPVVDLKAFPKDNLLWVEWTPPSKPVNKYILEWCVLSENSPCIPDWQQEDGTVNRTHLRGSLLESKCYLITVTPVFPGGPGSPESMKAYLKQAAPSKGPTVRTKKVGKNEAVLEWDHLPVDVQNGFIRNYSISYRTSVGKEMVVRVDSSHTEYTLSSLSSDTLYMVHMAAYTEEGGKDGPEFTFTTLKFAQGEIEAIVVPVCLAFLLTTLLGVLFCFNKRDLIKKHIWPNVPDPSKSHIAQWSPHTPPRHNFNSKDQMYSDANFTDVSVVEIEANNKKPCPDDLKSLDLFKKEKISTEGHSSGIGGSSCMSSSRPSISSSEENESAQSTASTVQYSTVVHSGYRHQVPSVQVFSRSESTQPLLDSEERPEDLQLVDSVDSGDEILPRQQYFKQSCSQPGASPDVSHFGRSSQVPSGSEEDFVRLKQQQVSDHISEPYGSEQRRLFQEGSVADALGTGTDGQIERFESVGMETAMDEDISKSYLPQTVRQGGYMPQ
Protocol: as §1

gp130-IL-6R complexes = biological target: T2, gp130-IL-6R complexes (Homo sapiens, UniProt P40189); assay: Receptor competition, gp130-Flag pull-down, IL-6R; type: cell-based; settings: in the presence of IL-6
T2 construct: Flag; expressed in transfected cells; host or cells: adult human articular chondrocytes
T2 sequence (P40189 23-918): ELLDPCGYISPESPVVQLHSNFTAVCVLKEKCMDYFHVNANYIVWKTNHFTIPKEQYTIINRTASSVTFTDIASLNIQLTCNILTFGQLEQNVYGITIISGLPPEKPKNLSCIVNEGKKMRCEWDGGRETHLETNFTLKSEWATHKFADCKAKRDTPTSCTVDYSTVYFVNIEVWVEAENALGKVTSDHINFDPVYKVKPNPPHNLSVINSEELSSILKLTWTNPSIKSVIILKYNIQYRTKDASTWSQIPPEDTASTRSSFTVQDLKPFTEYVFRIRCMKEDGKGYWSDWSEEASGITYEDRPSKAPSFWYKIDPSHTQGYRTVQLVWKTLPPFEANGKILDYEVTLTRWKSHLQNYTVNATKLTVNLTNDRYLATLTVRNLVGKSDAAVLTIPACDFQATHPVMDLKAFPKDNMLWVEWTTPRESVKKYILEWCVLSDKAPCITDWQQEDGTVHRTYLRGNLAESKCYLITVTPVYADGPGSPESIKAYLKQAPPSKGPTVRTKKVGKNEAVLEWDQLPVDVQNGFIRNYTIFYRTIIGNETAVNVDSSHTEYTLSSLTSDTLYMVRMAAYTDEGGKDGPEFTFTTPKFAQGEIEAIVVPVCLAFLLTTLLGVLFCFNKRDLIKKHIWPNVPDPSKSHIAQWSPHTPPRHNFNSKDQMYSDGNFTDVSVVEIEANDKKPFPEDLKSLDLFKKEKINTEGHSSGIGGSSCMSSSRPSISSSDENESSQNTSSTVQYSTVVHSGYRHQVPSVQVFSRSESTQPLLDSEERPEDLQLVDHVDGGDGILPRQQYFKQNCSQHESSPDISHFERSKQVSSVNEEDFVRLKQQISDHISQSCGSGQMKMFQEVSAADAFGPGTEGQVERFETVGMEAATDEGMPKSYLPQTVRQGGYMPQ
Protocol: Adult human chondrocytes transfected with gp130-Flag were incubated with various concentrations of RCGD 423 in the presence of IL-6 or OSM; levels of immoprecipitated IL-6R or OSMR were used to calculate the dissociation constant (Kd).
This property would be of great interest due to the pro-inflammatory and pro-catabolic effects of these cytokines in the joint space. […] To assess whether RCGD 423 could directly compete for gp130 occupancy, human adult articular chondrocytes were transfected with tagged gp130 and then pulled down associated proteins±RCGD 423 and/or IL-6.

[3] = Rat model of degenerative osteoarthritis (partial meniscectomy); type: in vivo
Protocol: In this system, 50% of the meniscus is surgically removed, promoting joint instability similar to what is commonly observed in human OA and degeneration of articular cartilage in 3-6 weeks (FIGS. 12A and B). RCGD 423 loaded onto PLGA (poly(lactic-co-glycolic acid)) microspheres for slow release, or microspheres alone, were injected into the joint space at the time of surgery and 3 weeks later.

adult human synoviocytes = assay: ERK and NF-κB downstream of OSM and IL-6 in synoviocytes; type: cell-based
Protocol: Accordingly, the ability of RCGD 423 to suppress signaling downstream of IL-6 and OSM in synoviocytes and peripheral blood mononuclear cells was assessed (FIG. 14).

SMILES: Brc1ccc(Nc2nc(-c3ccccc3)cs2)cc1 [RCGD 423]
- gp130 signaling in gp130−/− Ba/F3 cells (gp130 [1]): full-length gp130 is required for the activity of RCGD 423; also recorded: only increase gp130 signaling in the presence of RCGD 423 and WT gp130
- pSTAT3 and MYC levels in rat joints (gp130 [2]): increased pSTAT3 and MYC levels
- gp130-IL-6R complexes / competition with IL-6R for gp130 occupancy (gp130-IL-6R complexes): gp130-IL-6R complexes were significantly reduced; also recorded: directly competes with OSMR and IL-6R for gp130 occupancy
- OARSI scores ([3]; 6 weeks, loaded onto PLGA microspheres, injected into joint space at surgery and 3 weeks later): highly significantly lower OARSI scores
- expression of proteolytic (catabolic) enzymes after joint injury ([3]; rat OA model): decreased the expression of proteolytic enzymes; also recorded: decreased the levels of catabolic enzymes
- formation, size and maturity of osteophytes ([3]; rats following partial meniscectomy): inhibited both the formation and maturity of osteophytes; also recorded: reduced the size and maturity of osteophytes
- increases in ERK and NF-κB levels downstream of OSM and IL-6 (adult human synoviocytes): inhibits increases in ERK and NF-κB levels

— US12577238B2, “Compositions and methods for modulating inflammatory and degenerative disorder” (University of Southern California, priority 2018, dated 2026)
